Results taken from US20200277571A1, “METHOD FOR AMPLIFYING CONE PHOTORECEPTORS OR ROD PHOTORECEPTORS USING DORSALIZATION SIGNAL TRANSMITTER OR VENTRALIZATION SIGNAL TRANSMITTER” (RIKEN, priority 2017, published 2020).

Tests used:
Type in all cases: cell-based, human
[1] = system: ALDH1A3; assay: Immunostaining for ALDH1A3 (ventral marker) of retinal tissue; settings: day 75, 0.15 nM BMP4, 100 nM LDN193189, 100 nM SAG from day 22
Method: (§1) [1] Control group (FIG. 2a, f, k, p); according to the method described in Example 1, culture was performed up to day 70 or day 75 from the start of suspension culture and without addition. [2]+BMP group (FIG. 2b, g, 1, q); 0.15 nM BMP4 was added from day 22 from the start of suspension culture to completion of suspension culture, and cultured up to day 70 or day 75 from the start of suspension culture. [3]+Cyclopamine-KAAD group (FIG. 2c, h, m, r); 500 nM Cyclopamine-KAAD was added from day 22 from the start of suspension culture to completion of the suspension culture, and cultured up to day 70 or day 75 from the start of suspension culture. [4]+LDN193189 group (FIG. 2d, i, n, s); 100 nM LDN193189 was added from day 22 from the start of suspension culture to completion of the suspension culture, and cultured up to day 70 or day 75 from the start of suspension culture. [5]+SAG group (FIG. 2e, j, o, t); 100 nM SAG was added from day 22 from the start of suspension culture to completion of the suspension culture, and cultured up to day 70 or day 75 from the start of suspension culture.
The retinal tissues produced by the method described in Example 2 were fixed with 4% para-formaldehyde, cryosections were prepared, and immunostaining for GFP (fluorescence of GFP variant incorporated in CRX gene locus can be identified. That is, cells similar to CRX-positive cell can be identified), ALDH1A3, or DAPI staining for staining the nucleus was performed. The retinal tissue used was one on day 75 from the start of suspension culture similar to Example 2. As a result, an ALDH1A3-positive region considered to be a ventral region in the Control (NUC) group was found in the retinal tissue, and in such region, particularly GFP-positive cells, i.e., CRX::Venus-positive cells expressing CRX, were less. In +BMP4 group, overall expression of ALDH1A3 was suppressed as compared to the Control (NUC) group, and CRX::Venus-positive cells increased along therewith.

[2] = system: ALDH1A3 gene; assay: Quantitative PCR of ALDH1A3 gene expression in retinal tissue; settings: about day 70-75, 0.15 nM BMP4, 100 nM LDN193189, 100 nM SAG from day 22
Method: as §1
RNA was extracted from retinal tissue on about day 70-75 from the start of suspension culture and prepared under the same conditions, cDNA was synthesized, and the ALDH1A3 gene expression level was analyzed by quantitative PCR. As a result, the expression level of the ALDH1A3 gene was suppressed in +BMP4 group as compared to the Control (NUC) group, and the expression was promoted in +LDN193189 group, +SAG group (FIG. 7, white bar (d70) in graph), as similarly observed by immunostaining. In addition, RNA was extracted from retinal tissue on about day 40-44 from the start of suspension culture and cultured under the same conditions except the culture period, cDNA was synthesized, and the ALDH1A3 gene expression level was analyzed by quantitative PCR. As a result, the expression level scarcely changed on about day 40 from the start of suspension culture as compared to on about day 70 from the start of suspension culture and difference was not found (FIG. 7, black bar (d40) in graph).

[3] = system: ALDH1A1; assay: Immunostaining for ALDH1A1 (dorsal marker) of retinal tissue
Method: as §1
The retinal tissue produced by the methods described in Example 2 and Example 7 was fixed with 4% para-formaldehyde, cryosections were prepared, and immunostaining for ALDH1A1 was performed. The retinal tissue used was one on day 75 from the start of suspension culture similar to Example 2 and one on about day 40 from the start of suspension culture and cultured under the same conditions except the culture period as in Example 7.

[4] = about day 40 from start of suspension culture, 0.15 nM BMP4, 100 nM LDN193189, 100 nM SAG from day 22

| Compound | ALDH1A3 expression / ALDH1A3-positive region versus Control (NUC) group [1] | expression level of the ALDH1A3 gene versus Control (NUC) group [2] | clear ALDH1A1-positive region (dorsal region) [3, 4] | clear ALDH1A1-positive region (dorsal region) ([3]; day 75 from start of suspension culture, 0.15 nM BMP4 from day 22) |
| --- | --- | --- | --- | --- |
| c1ccc2c(-c3cnn4cc(-c5ccc(N6CCNCC6)cc5)cnc34)ccnc2c1 [LDN193189, 4-[6-(4-piperazin-1-ylphenyl)pyrazolo[1,5-a]pyrimidin-3-yl]quinoline] | increased | promoted | not found |  |
| CNC1CCC(N(Cc2cccc(-c3ccncc3)c2)C(=O)c2sc3ccccc3c2Cl)CC1 (stereo not shown) [SAG] | increased | promoted | not found |  |
| BMP4: BMP protein; BMP signal transduction pathway agonist used as dorsalization signal transmitter | suppressed | suppressed | found only in +BMP4 group | not observed |
